# Patent US11566007B2, “Ras inhibitors” (Revolution Medicines, Inc., priority 2019, dated 2023)
# Legend:
# NRAS WT = NRAS WT (Homo sapiens (Human), UniProt P01111+P62937); experiment: Ras-Raf (BRAF RBD) disruption / FRET / MOA assay, NRAS WT; format: biochemical; conditions: read-out: IC50* NRAS WT FRET data
# Procedure, shortened: (§1)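 Compounds (30 μM top final, 10-point 3-fold dilutions) incubated 3 h at 25° C with nucleotide-loaded Ras, cyclophilin A and BRAF RBD. Detection with 10 nM anti-His Eu-W1024 and 50 nM anti-GST allophycocyanin over another 1.5 h. Lowered TR-FRET ratio relative to DMSO wells gives IC50.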
# KRAS G13D = KRAS G13D (Homo sapiens (Human), UniProt P01116+P62937, G13D); experiment: Ras-Raf (BRAF RBD) disruption / FRET / MOA assay, KRAS G13D; format: biochemical; conditions: read-out: IC50* KRAS G13D FRET data
# Procedure, shortened: (§2)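 Compound-driven ternary complex of nucleotide-loaded Ras with cyclophilin A, disrupting BRAF RBD binding. 10-point 3-fold dilution from 30 μM final, 3 h at 25° C, then anti-His Eu-W1024 (10 nM) and anti-GST allophycocyanin (50 nM) for 1.5 h. IC50 from TR-FRET ratio decrease versus DMSO.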
# KRAS G12V = KRAS G12V (Homo sapiens (Human), UniProt P01116+P62937, G12V); experiment: Ras-Raf (BRAF RBD) disruption / FRET / MOA assay, KRAS G12V; format: biochemical; conditions: read-out: IC50* KRAS G12V FRET data
# Procedure, shortened: as §2
# [1] = system: NCI-H358 cells (K-Ras G12C); experiment: Potency assay: pERK in NCI-H358 cells; format: cell-based, human; conditions: Homo sapiens, NCI-H358; H358 KRAS G12C; read-out: pERK EC50
# Procedure, shortened: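 4 h cpd, 37 °C; 10-pt 3-fold series, 10 mM DMSO top stock, duplicates. Readout pERK: AlphaLISA SureFire Ultra or In-Cell Western (IR-800CW secondary, DRAQ5 DNA stain). IC50, 4-PL fit vs log conc.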
# KRAS Q61H = KRAS Q61H (Homo sapiens (Human), UniProt P01116+P62937, Q61H); experiment: Ras-Raf (BRAF RBD) disruption / FRET / MOA assay, KRAS Q61H; format: biochemical; conditions: Ras-Raf disruption/FRET/MOA assay; class symbols; read-out: KRAS Q61H FRET data IC50
# Procedure, shortened: as §1
# NRAS G12C = NRAS G12C (Homo sapiens (Human), UniProt P01111+P62937, G12C); experiment: Ras-Raf (BRAF RBD) disruption / FRET / MOA assay, NRAS G12C; format: biochemical; conditions: read-out: IC50* NRAS G12C FRET data
# Procedure, shortened: as §2
# K-Ras G13C = K-Ras G13C (Homo sapiens (Human), UniProt P01116+P62937, G13C); experiment: Ras-Raf (BRAF RBD) disruption / FRET / MOA assay, KRAS G13C; format: biochemical; conditions: KRAS G13C; Ras-Raf disruption/FRET/MOA assay; read-out: IC50* KRAS G13C FRET data
# Procedure, shortened: as §2
# KRAS G13D, sequence (P01116-2 other isoform, or with tags, fused parts or gaps G13D): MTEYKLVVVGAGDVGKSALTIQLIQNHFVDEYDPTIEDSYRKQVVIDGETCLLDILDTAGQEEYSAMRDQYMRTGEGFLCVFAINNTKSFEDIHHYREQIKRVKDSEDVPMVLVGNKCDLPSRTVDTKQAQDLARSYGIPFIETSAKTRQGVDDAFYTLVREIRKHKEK
# KRAS G13D, sequence (P62937 whole entry): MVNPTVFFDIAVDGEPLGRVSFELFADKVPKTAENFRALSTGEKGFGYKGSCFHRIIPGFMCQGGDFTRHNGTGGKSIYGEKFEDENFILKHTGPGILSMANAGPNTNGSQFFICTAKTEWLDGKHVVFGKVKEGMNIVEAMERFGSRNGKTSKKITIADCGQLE
# K-Ras G13C, sequence (P01116-2 other isoform, or with tags, fused parts or gaps G13C): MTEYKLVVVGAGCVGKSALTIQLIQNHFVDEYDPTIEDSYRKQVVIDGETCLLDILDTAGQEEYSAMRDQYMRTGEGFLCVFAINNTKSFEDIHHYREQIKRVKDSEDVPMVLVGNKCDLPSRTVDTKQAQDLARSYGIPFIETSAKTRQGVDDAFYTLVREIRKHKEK
# K-Ras G13C, sequence (P62937 whole entry): as the sequence (P62937 whole entry) above
# NRAS G12C, sequence (P01111 whole entry G12C): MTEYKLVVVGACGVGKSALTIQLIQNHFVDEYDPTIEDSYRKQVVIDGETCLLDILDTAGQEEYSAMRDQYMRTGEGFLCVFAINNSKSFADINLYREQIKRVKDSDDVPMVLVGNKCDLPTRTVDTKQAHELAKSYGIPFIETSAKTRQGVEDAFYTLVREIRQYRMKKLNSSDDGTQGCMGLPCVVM
# NRAS G12C, sequence (P62937 whole entry): as the sequence (P62937 whole entry) above
# KRAS G12V, sequence (P01116-2 other isoform, or with tags, fused parts or gaps G12V): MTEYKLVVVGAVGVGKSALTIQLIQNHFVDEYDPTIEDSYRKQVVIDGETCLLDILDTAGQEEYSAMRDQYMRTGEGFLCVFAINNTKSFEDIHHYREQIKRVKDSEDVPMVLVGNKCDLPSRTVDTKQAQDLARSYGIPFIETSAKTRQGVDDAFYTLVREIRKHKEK
# KRAS G12V, sequence (P62937 whole entry): as the sequence (P62937 whole entry) above
# KRAS Q61H, sequence (P01116-2 other isoform, or with tags, fused parts or gaps Q61H): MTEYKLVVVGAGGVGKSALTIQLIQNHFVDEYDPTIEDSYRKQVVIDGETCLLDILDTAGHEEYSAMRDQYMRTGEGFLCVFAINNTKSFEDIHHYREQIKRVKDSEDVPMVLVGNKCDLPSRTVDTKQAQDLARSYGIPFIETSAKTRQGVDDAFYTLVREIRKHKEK
# KRAS Q61H, sequence (P62937 whole entry): as the sequence (P62937 whole entry) above
# NRAS WT, sequence (P01111 whole entry): as the sequence (P01111 whole entry G12C) above, with C12G counted along it
# NRAS WT, sequence (P62937 whole entry): as the sequence (P62937 whole entry) above
SMILES,IC50 (NRAS WT) [µM],IC50 (KRAS G13D) [µM],IC50 (KRAS G12V) [µM],EC50 [1] [µM],IC50 (KRAS Q61H) [µM],IC50 (NRAS G12C) [µM],IC50 (K-Ras G13C) [µM]
"C=CC(=O)N1CCOC2(CCN(C(=O)N(C)[C@H](C(=O)N[C@H]3Cc4cc(CF)cc(c4)-c4ccc5c(c4)c(c(-c4cccnc4[C@H](C)OC)n5CC(F)(F)F)CC(C)(C)COC(=O)[C@@H]4CCCN(N4)C3=O)C(C)C)CC2)C1 (atropisomer, axis not shown) [Example A605]",0.01 to 0.1,0.1 to 1,0.1 to 1,< 5,0.01 to 0.1,0.1 to 1,0.01 to 0.1
"C=CC(=O)N1CCOC2(CCN(C(=O)N(C)[C@H](C(=O)N[C@H]3Cc4cccc(c4)-c4ccc5c(c4)c(c(-c4cccnc4[C@H](C)OC)n5CC(F)(F)F)CC(C)(C)COC(=O)[C@@H]4CCCN(N4)C3=O)C(C)C)CC2)C1 (atropisomer, axis not shown) [Example A608]",0.1 to 1,0.1 to 1,0.1 to 1,< 5,0.01 to 0.1,0.1 to 1,0.01 to 0.1
"C=CC(=O)N1CCC[C@@H]2CN(C(=O)N(C)[C@H](C(=O)N[C@H]3Cc4nc(cs4)-c4ccc5c(c4)c(c(-c4cccnc4[C@H](C)OC)n5CC)CC(C)(C)COC(=O)[C@@H]4CCCN(N4)C3=O)C(C)C)C[C@@H]21 (atropisomer, axis not shown) [Example A619]",1 to 10,1 to 10,1 to 10,< 5,0.1 to 1,0.1 to 1,0.1 to 1
"CCn1c(-c2cccnc2[C@H](C)OC)c2c3cc(ccc31)-c1csc(n1)C[C@H](NC(=O)[C@H](C(C)C)N(C)C(=O)N1CCC3(CC1)CN(C(=O)/C=C/CF)C3)C(=O)N1CCC[C@H](N1)C(=O)OCC(C)(C)C2 (atropisomer, axis not shown) [Example A622]",0.1 to 1,0.1 to 1,0.1 to 1,< 5,0.01 to 0.1,0.01 to 0.1,0.01 to 0.1
"CCn1c(-c2cccnc2[C@H](C)OC)c2c3cc(ccc31)-c1csc(n1)C[C@H](NC(=O)[C@@H](F)COC1CN(C(=O)C#CC(C)(C)N(C)C)C1)C(=O)N1CCC[C@H](N1)C(=O)OCC(C)(C)C2 (atropisomer, axis not shown) [Example A626]",1 to 10,1 to 10,1 to 10,< 5,0.1 to 1,< 0.01,1 to 10
"CO[C@@H](C)c1ncccc1-c1c2c3cc(ccc3n1CC(F)(F)F)N1CCO[C@@H](C[C@H](NC(=O)[C@H](C(C)C)N3CC[C@@]4(CCN(C(=O)C#CC(C)(C)N(C)C)C4)C3=O)C(=O)N3CCC[C@H](N3)C(=O)OCC(C)(C)C2)C1 (atropisomer, axis not shown) [Example A628]",> 10,> 10,1 to 10,< 5,> 10,< 0.01,1 to 10
"C=CC(=O)N(C)CCN1CCN(C(=O)N(C)[C@H](C(=O)N[C@H]2Cc3nc(cs3)-c3ccc4c(c3)c(c(-c3cccnc3[C@H](C)OC)n4CC)CC(C)(C)COC(=O)[C@@H]3CCCN(N3)C2=O)C(C)C)CC1 (atropisomer, axis not shown) [Example A630]",0.1 to 1,1 to 10,0.1 to 1,< 5,0.1 to 1,0.1 to 1,0.01 to 0.1
"C=CC(=O)N(C)[C@H]1CN(C(=O)N(C)[C@H](C(=O)N[C@H]2Cc3nc(cs3)-c3ccc4c(c3)c(c(-c3cccnc3[C@H](C)OC)n4CC)CC(C)(C)COC(=O)[C@@H]3CCCN(N3)C2=O)C(C)C)C[C@H]1F (atropisomer, axis not shown) [Example A631]",0.1 to 1,0.1 to 1,0.1 to 1,< 5,0.01 to 0.1,0.01 to 0.1,0.1 to 1
"C=CC(=O)N1CC[C@H](C(=O)N(C)[C@@H](CC(F)(F)F)C(=O)N[C@H]2Cc3cccc(c3)-c3ccc4c(c3)c(c(-c3cccnc3[C@H](C)OC)n4CC)CC(C)(C)COC(=O)[C@@H]3CCCN(N3)C2=O)C1 (atropisomer, axis not shown) [Example A639]",1 to 10,> 10,1 to 10,< 5,1 to 10,0.1 to 1,1 to 10
"CCn1c(-c2cccnc2[C@H](C)OC)c2c3cc(ccc31)N1CCO[C@@H](C[C@H](NC(=O)[C@@H](COC3CCN(C(=O)C#CC(C)(C)N(C)C)CC3)C(C)C)C(=O)N3CCC[C@H](N3)C(=O)OCC(C)(C)C2)C1 (atropisomer, axis not shown) [Example A643, (2R)-2-(((1-(4-(dimethylamino)-4-methylpent-2-ynoyl)piperidin-4-yl)oxy)methyl)-N-((2^2S,6^3S,4S)-1^1-ethyl-1^2-(2-((S)-1-methoxyethyl)pyridin-3-yl)-10,10-dimethyl-5,7-dioxo-6^1,6^2,6^3,6^4,6^5,6^6-hexahydro-1^1H-8-oxa-2(4,2)-morpholina-1(5,3)-indola-6(1,3)-pyridazinacycloundecaphane-4-yl)-3-methylbutanamide]",> 10,> 10,> 10,< 5,> 10,0.01 to 0.1,1 to 10
"CCn1c(-c2cccnc2[C@H](C)OC)c2c3cc(ccc31)-c1cccc(c1)C[C@H](NC(=O)[C@@H](COC1CN(C(=O)C#C[C@H]3COCCN3C)C1)C(C)C)C(=O)N1CCC[C@H](N1)C(=O)OCC(C)(C)C2 (atropisomer, axis not shown) [Example A644]",> 10,> 10,> 10,< 5,> 10,0.01 to 0.1,1 to 10
"CCn1c(-c2cccnc2[C@H](C)OC)c2c3cc(ccc31)-c1cccc(c1)C[C@H](NC(=O)[C@@H](COC1CN(C(=O)C#C[C@@H]3OCCCN3C)C1)C(C)C)C(=O)N1CCC[C@H](N1)C(=O)OCC(C)(C)C2 (atropisomer, axis not shown) [Example A648]",1 to 10,> 10,> 10,< 5,> 10,0.1 to 1,1 to 10
"CCn1c(-c2cccnc2[C@H](C)OC)c2c3cc(ccc31)-c1cnc(o1)C[C@H](NC(=O)[C@@H](COC1CN(C(=O)C#CC(C)(C)N(C)C)C1)C(C)C)C(=O)N1CCC[C@H](N1)C(=O)OCC(C)(C)C2 (atropisomer, axis not shown) [Example A649]",> 10,> 10,> 10,< 5,> 10,0.01 to 0.1,> 10
"CCn1c(-c2cccnc2[C@H](C)OC)c2c3cc(ccc31)-c1csc(n1)C[C@H](NC(=O)[C@H](C(C)C)N(C)C(=O)N1CCC3(CC1)CN(C(=O)/C=C/CN(C)C)C3)C(=O)N1CCC[C@H](N1)C(=O)OCC(C)(C)C2 (atropisomer, axis not shown) [Example A650]",0.1 to 1,0.1 to 1,0.1 to 1,< 5,0.01 to 0.1,0.01 to 0.1,0.01 to 0.1
"CCn1c(-c2cccnc2[C@H](C)OC)c2c3cc(ccc31)-c1csc(n1)C[C@H](NC(=O)[C@H](C(C)C)N(C)C(=O)N1CCC13CN(C(=O)C#CC(C)(C)N(C)C)C3)C(=O)N1CCC[C@H](N1)C(=O)OCC(C)(C)C2 (atropisomer, axis not shown) [Example A656]",0.1 to 1,1 to 10,1 to 10,< 5,0.01 to 0.1,0.1 to 1,1 to 10
"CO[C@@H](C)c1ncccc1-c1c2c3cc(ccc3n1CC(F)(F)F)-c1csc(n1)C[C@H](NC(=O)[C@H](C(C)C)N(C)C(=O)N1CCN(C(=O)/C=C/CN(C)C)C3(CC3)C1)C(=O)N1CCC[C@H](N1)C(=O)OCC(C)(C)C2 (atropisomer, axis not shown) [Example A664]",0.01 to 0.1,0.01 to 0.1,0.1 to 1,< 5,0.01 to 0.1,0.01 to 0.1,0.01 to 0.1
"C=CC(=O)N1CC(N2CCN(C(=O)N(C)[C@H](C(=O)N[C@H]3Cc4nc(cs4)-c4ccc5c(c4)c(c(-c4cccnc4[C@H](C)OC)n5CC)CC(C)(C)COC(=O)[C@@H]4CCCN(N4)C3=O)C(C)C)CC2)C1 (atropisomer, axis not shown) [Example A668]",0.1 to 1,1 to 10,0.1 to 1,< 5,0.01 to 0.1,0.01 to 0.1,0.01 to 0.1
